{"source": "patent US20230134782A1", "about": "“TREATMENT OF SKIN CONDITIONS USING HIGH KRAFFT TEMPERATURE ANIONIC SURFACTANTS” (ARCUTIS BIOTHERAPEUTICS, INC., priority 2020, published 2023)"}
{"assay": "Krafft temperature determination in distilled water (water bath, dissolution and frothing on shaking)", "format": "physicochemical", "settings": "aqueous solution in distilled water: 0.012% ceteth-10 phosphate, 0.017% dicetyl phosphate, 0.014% sodium cetostearyl sulfate", "protocol": "(§1) 0.0012 grams of ceteth-10 phosphate (Moravek Lot 671-144-000-A-20190821-JHO) was weighed into a 20 mL glass scintillation vial. 10.0113 grams of distilled water was added to the scintillation vial and the vial was tightly capped and placed in a water bath. […] The surfactant remained as waxy particles sedimented on the bottom of the vial. After equilibration at 53.0° C. for 435 minutes, ceteth-10 phosphate had dissolved and the sample frothed when shaken. The Krafft temperature of a 0.012% ceteth-10 phosphate aqueous solution was determined to be 53.0° C.\n(§2) 0.0019 grams of dicetyl phosphate (Sigma dihexadecyl phosphate lot STBH2863) was weighed into a 20 mL glass scintillation vial. 11.2262 grams of distilled water was added to the scintillation vial and the vial was tightly capped and placed in a water bath. […] After equilibration at 58.0° C. for 450 minutes, dicetyl phosphate had dissolved and the sample frothed when shaken. The Krafft temperature of a 0.017% dicetyl phosphate aqueous solution was determined to be 58.0° C. 0.0024 grams of sodium cetostearyl sulfate (BASF Lanette E Granules Lot 0021826181) was weighed into a 20 mL glass scintillation vial. 17.0763 grams of distilled water was added to the scintillation vial and the vial was tightly capped and placed in a water bath. […] The Krafft temperature of a 0.014% sodium cetostearyl sulfate aqueous solution was determined to be 41.0° C.", "units": {"Krafft Temperature": "°C"}}
{"compound": "ceteth-10 phosphate [Ceteth - 10 phosphate]", "Krafft Temperature": 53}
{"assay": "Krafft temperature determination in distilled water (water bath, dissolution and frothing on shaking)", "format": "physicochemical", "settings": "aqueous solution in distilled water: 0.012% ceteth-10 phosphate, 0.017% dicetyl phosphate, 0.014% sodium cetostearyl sulfate; listed as ceteth-10 phosphate", "protocol": "as §1, §2", "units": {"Krafft Temperature": "°C"}}
{"compound": "ceteth-10 phosphate [Ceteth - 10 phosphate]", "Krafft Temperature": 53}
{"assay": "not given", "settings": "commonly used anionic surfactants; no source or concentration printed; cited from earlier work", "units": {"Krafft Temperature": "°C"}}
{"compound": "CCCCCCCCCCOS(=O)(=O)[O-].[Na+]", "note": "[Sodium decyl sulfate]", "Krafft Temperature": 8.0}
{"compound": "CCCCCCCCCCS(=O)(=O)[O-].[Na+]", "note": "[Sodium decyl sulfonate]", "Krafft Temperature": 22.5}
{"compound": "CCCCCCCCCCCCCCCCS(=O)(=O)[O-].[Na+]", "note": "[Sodium hexadecyl sulfonate]", "Krafft Temperature": 57.0}
{"compound": "CCCCCCCCCCCCCCCCCC(=O)[O-].[Na+]", "note": "[Sodium stearate]", "Krafft Temperature": 71}
{"compound": "Sodium laureth sulfate", "Krafft Temperature": "<0"}
{"compound": "CCCCCCCCCCCCOS(=O)(=O)[O-].[Na+]", "note": "[Sodium lauryl sulfate]", "Krafft Temperature": 16.0}
{"compound": "CCCCCCCCCCCCCCCC(=O)[O-].[Na+]", "note": "[Sodium palmitate]", "Krafft Temperature": 69}
{"compound": "CCCCCCCCCCCCCCCCCCOS(=O)(=O)[O-].[Na+]", "note": "[Sodium stearyl sulfate]", "Krafft Temperature": 56.0}
{"compound": "CCCCCCCCCCCCCC(=O)[O-].[Na+]", "note": "[Sodium myristate]", "Krafft Temperature": 39}
{"compound": "CCCCCCCCCCCCCCOS(=O)(=O)[O-].[Na+]", "note": "[Sodium myristyl sulfate]", "Krafft Temperature": 30.0}
{"compound": "CCCCCCCCCCCCCCCCOS(=O)(=O)[O-].[Na+]", "note": "[Sodium cetyl sulfate]", "Krafft Temperature": 45.0}
{"compound": "CCCCCCCCCCCC(=O)[O-].[Na+]", "note": "[Sodium laurate]", "Krafft Temperature": 21.5}
{"compound": "CCCCCCCCCCCCOP(=O)([O-])[O-].[Na+].[Na+]", "note": "[Sodium lauryl phosphate]", "Krafft Temperature": 31.5}
{"compound": "CCCCCCCCCCCCOS(=O)(=O)O.N", "note": "[Ammonium lauryl sulfate]", "Krafft Temperature": 10}
{"compound": "CCCCCCCCCCCCCCS(=O)(=O)[O-].[Na+]", "note": "[Sodium myristyl sulfonate, Sodium myristyl* sulfonate]", "Krafft Temperature": 48.0}
